# Laboratory results from US12673063B2, “Methods and materials for treatment of fibrosis” (Massachusetts Eye and Ear Infirmary, priority 2020, dated 2026).
# Experiments:
# [1] = tested on: bleomycin-induced lung fibrosis; assay: Bleomycin-induced lung fibrosis model, H&E, Masson's trichrome, Ashcroft score; assay type: in vivo, C57BL/6J mice
# Description: Animal procedures were approved by the Institutional Animal Care and Use Committee (IACUC) of Massachusetts Eye and Ear, and performed in accordance with the Association for Research in Vision and Ophthalmology Statement for the Use of Animals in Ophthalmic and Vision Research. C57BL/6J male and female mice of 6-8 weeks-old were purchased from Jackson Laboratories. For all procedures, mice were anesthetized by intraperitoneal injection of Ketamine/xylazine mixture (100/50 mg/Kg).
# (§1) Bleomycin sulphate (Sigma-Aldrich) was dissolved in sterile 0.9% saline and administered as a single dose of 0.05 units in a total volume of 50 μl in saline solution per animal intratracheally (IT). Control animals received 0.05 mL saline alone. A preventative regimen was chosen and each animal received either Ro24-7429 drug 70 mg/kg or vehicle every other day 7 days before the induction of the model and continued until the end of the experiment for 1 week or 2 weeks. All animals received intratracheal instillations of either bleomycin on day 0 as previously described (52-55). A separate experiment was performed with similar drug-vehicle treatments and IT saline instillation for controls. The surgeon performing IT instillations was masked to the identity of the treatment groups.
# Lung samples were fixed in 10% neutral buffered formalin (Sigma, HT501128-4L), for 24 hours for histological analysis. Fixed lungs were paraffin embedded and sectioned (5 μm-thick) and stained with hematoxylin and eosin (H&E) to examine gross morphology and Masson's trichrome stain to visualize collagen deposition and examined by microscopy. Lung fibrosis was measured using quantitative histology using the Ashcroft method of analysis. All measurements were performed by two independent graders in a blinded fashion. Images were acquired with the Nikon Eclipse E800 microscope with an Olympus DP70 Camera. Adjacent 2× images of the lung were stitched together using Adobe Photoshop CS6.
# Bleomycin triggers a strong inflammatory response in the lung at day 7 characterized by infiltration with neutrophils and macrophages, vascular leakage, and up-regulation of cytokines, chemokines and other inflammatory mediators. By day 14, bleomycin treated mice are expected to develop significant lung fibrosis including disruption of the normal lung architecture, thickening of the alveolar septa, and excessive extracellular matrix and collagen deposition around the alveolar structures. We examined the effects of escalating doses of Ro24-7429 (17.5, 35 and 70 mg/kg per day) on bleomycin-induced lung fibrosis by H&E and Masson's trichrome staining in mice at day 14 (FIG. 1A-B, FIG. 5A-B). These doses were estimated to be equivalent to those used in the Ro24-7429 human trial, 75, 150 or 300 mg per day, respectively (28).
# [2] = tested on: RUNX1 and fibrosis markers in lung tissue; assay: Expression of RUNX1 and fibrosis markers in bleomycin-injured lung (Western blot, qRT-PCR, immunostaining); assay type: in vivo, C57BL/6J mice
# Description: as §1
# Paraffin embedded sections were processed for immunofluorescence using the following antibodies: anti-RUNX1 (1:100; LS-B13948; Lifespan Biosciences, Seattle, WA), anti-human a-SMA antibody (1:200; NB500-170; Novus Biologicals, Ontario, Canada), anti-Iba1 antibody (1:100; ab5076; Abcam, Cambridge, United Kingdom), anti-Ly6g antibody (1:100; ab25377; Abcam, Cambridge, United Kingdom), and Isolectin GS-IB4 Alexa Fluoro 594 Conjugate (1:250; 121413; Invitrogen, Carlsbad, CA). For heat-induced antigen retrieval the slides were boiled in 10 mM sodium citrate buffer (pH 6.0) and then maintained at a sub-boiling temperature (95-100° C.) for 20 minutes and subsequently cooled on the bench top for 30 minutes. Slides were washed with distilled water and permeabilized with 0.5% Triton X-100 in PBS for 5 minutes and blocked (10% goat serum in PBS) for 1 hour at RT. The primary antibody was prepared in antibody dilution buffer (5% goat serum) and samples were incubated overnight with the antibody solution at 4° C. Sections were washed with PBS and incubated with goat anti-rabbit Alexa Fluor 594 secondary antibody (1:500; A-11012; Invitrogen, Carlsbad, CA) for 2 hours at room temperature. Slides were mounted and visualized using Prolong Gold Antifade Reagent with DAPI (P36935, Invitrogen). Images were obtained using an EVOS FL automated stage live cell imaging system (Life Technologies, Cambridge, MA).
# (§2) Protein concentration was determined by Pierce Bicinchonic acid (BCA) protein assay kit (ThermoFisher; 23227) according to the manufacturer's instructions. 20 μg of total cell lysates were prepared in 4 μL 1M 1,4-dithiothreitol (DTT; Sigma Aldrich) and 10 μL Laemmli buffer (Boston Bioproducts) to a final volume of 40 μL and denatured 5 min at 90° C. Samples were separated electrophoretically for 1 h at 70 V using 4-20% pre-cast gradient gels (Mini-PROTEAN TGX, Bio-Rad) and SDS-Tris-Glycine buffer (Bio-rad). Proteins were transferred to 0.45 μm nitrocellulose membranes for 1 h at 70 V in ice cold […] Tris-Glycine buffer (Bio-rad). Membranes were blocked for 1 h with Odyssey Blocking Buffer (LI-COR Biosciences). Then incubated with primary antibodies for 3 hours RT or overnight at 4 degrees Celsius and then washed 3× with TBS-T and incubated with secondary antibodies IRDye 800CW donkey anti-mouse for 1 hour and washed 3× with TBS-T.
# Mice were treated as described previously before euthanasia. Lung samples were collected for qRT-PCR analysis and tissues lysed by homogenization. RNA was extracted using RNeasy Mini Kits (QIAGEN), as per the manufacturer's instructions for tissue samples. Transcription into complementary DNA and analysis were performed as stated previously. Primers for selected genes (Table 1) were purchased from Integrated DNA Technologies (Coralville, IA, USA).
# [3] = tested on: bleomycin-induced inflammation; assay: Bleomycin-induced lung inflammation, infiltration of neutrophils and macrophages; assay type: in vivo, C57BL/6J mice; settings: 1-week and 2-week time points
# Description: as §1
# Paraffin embedded sections were processed for immunofluorescence using the following antibodies: anti-RUNX1 (1:100; LS-B13948; Lifespan Biosciences, Seattle, WA), anti-human a-SMA antibody (1:200; NB500-170; Novus Biologicals, Ontario, Canada), anti-Iba1 antibody (1:100; ab5076; Abcam, Cambridge, United Kingdom), anti-Ly6g antibody (1:100; ab25377; Abcam, Cambridge, United Kingdom), and Isolectin GS-IB4 Alexa Fluoro 594 Conjugate (1:250; 121413; Invitrogen, Carlsbad, CA). […]
# We evaluated the potential effect of Ro24-7429 on bleomycin-induced inflammation 1 week and 2 weeks after lung injury (FIGS. 1I-J and 2).
# A549 cells [4] = assay: CyQUANT Direct Cell Proliferation Assay, A549; assay type: cell-based, human; settings: for percent live cells compared to vehicle treated: 48 hours, Ro5-3335 150 μM, Ro24-7429 50 μM-200 μM, Pirfenidone 500 μg/ml, Nintedanib 5 μM
# Description: (§3) Human type II alveolar epithelial cells (A549) were a generous gift from Dr. Lagares (Mass General Hospital). Cells were maintained in low glucose-DMEM containing 10% FBS, 2 mM L-glutamine, 100 U/ml penicillin and 100 μg/ml streptomycin at 37° C. in a humidified 5% C02 atmosphere. Confluent cultures of cells were pretreated with Ro24-7429 for 24 hours followed by stimulation with 5 ng/ml of TGF-β1.
# (§4) We tested the effect of RUNX1 inhibition on the proliferation of a human alveolar basal epithelial cell line (A549), primary human-derived pulmonary alveolar epithelial cells (HPAEpi), and in human-derived primary culture lung fibroblasts (HLF). For specific analyses we used escalating doses of Ro24-7429 (50-200 μM), Ro5-3335 (150 μM), pirfenidone (500 μg/ml) and nintedanib (5 μM), the latter two are currently approved drugs for IPF.
# [5] = tested on: human lung fibroblasts (HLF); assay: CyQUANT Direct Cell Proliferation Assay, HLF; assay type: cell-based; settings: 72 hours
# Source text: as §4, with “We conducted mechanistic studies in cell culture to examine the cellular and molecular mechanisms underlying the robust effects of RUNX1 inhibition in the protection against bleomycin-induced lung injury. We” for “We”
# A549 cells [6] = assay: Lactate dehydrogenase (LDH) cell death assay, A549; assay type: cell-based; settings: A549; Ro24-7429 50-200 μM, Ro5-3335 150 μM
# Description: Human type II alveolar epithelial cells (A549) were a generous gift from Dr. Lagares (Mass General Hospital). Cells were maintained in low glucose-DMEM containing 10% FBS, 2 mM L-glutamine, 100 U/ml penicillin and 100 μg/ml streptomycin at 37° C. in a humidified 5% C02 atmosphere.
# We tested the effect of RUNX1 inhibition on the proliferation of a human alveolar basal epithelial cell line (A549), primary human-derived pulmonary alveolar epithelial cells (HPAEpi), and in human-derived primary culture lung fibroblasts (HLF).
# [7] = tested on: human lung fibroblasts (HLF); assay: Lactate dehydrogenase (LDH) cell death assay, HLF; assay type: cell-based; settings: Ro24-7429 50-200 μM, Ro5-3335 150 μM
# Source text: as §4, with “We conducted mechanistic studies in cell culture to examine the cellular and molecular mechanisms underlying the robust effects of RUNX1 inhibition in the protection against bleomycin-induced lung injury. We” for “We”
# N-Cadherin in A549 cells = assay: TGF-β1-induced N-Cadherin upregulation, Western blot, A549; assay type: cell-based, human; settings: A549, 150 μM and 200 μM, 24 hours prior to TGF-β1 exposure
# Description: as §3
# as §2, with “Then incubated with primary antibodies for 3 hours RT or overnight at 4 degrees Celsius and then washed 3× with TBS-T and incubated with secondary antibodies IRDye 800CW donkey anti-mouse for 1 hour and washed 3× with TBS-T.” left out
# (§5) We evaluated the effect of RUNX1 inhibition on the expression of fibrosis markers induced by TGF-β1, a critical mediator of PF (30), in A549 cells at 24, 48 and 72 hours. […]
# [8] = tested on: N-Cadherin in HPAEpi cells; assay: TGF-β1-induced N-Cadherin upregulation, Western blot, HPAEpi; assay type: cell-based, human; settings: 150 μM and 200 μM, 24 hours prior to TGF-β1 exposure
# Description: (§6) Human Pulmonary Alveolar Epithelial cells (HPAEpiCs) were purchased from ScienCell (Carlsbad, CA, USA) and cultured in alveolar epithelial cell medium (ScienCell) supplemented with 2% fetal bovine serum (FBS), epithelial cell growth supplement, 100 U/mL penicillin G, and 100 µg/mL streptomycin. The cells were cultured and maintained in 6-well plates for experimental purposes.
# as §2, with “Then incubated with primary antibodies for 3 hours RT or overnight at 4 degrees Celsius and then washed 3× with TBS-T and incubated with secondary antibodies IRDye 800CW donkey anti-mouse for 1 hour and washed 3× with TBS-T.” left out
# as §5
# RUNX1 mRNA in HMEC-Ls = assay: TNF-α-induced RUNX1 mRNA, qRT-PCR, HMEC-Ls; assay type: cell-based, human; settings: 75 μM, TNF-α 5 ng/ml, 48 hours
# FURIN mRNA in HMEC-Ls = assay: FURIN mRNA, qPCR, TNF-α-stimulated HMEC-Ls; assay type: cell-based, human; settings: TNF-α 5 ng/ml
# [9] = tested on: ACE2 protein in HPAEpi cells; assay: TGF-β1 and TNF-α induced ACE2 protein, Western blot, HPAEpi cells; assay type: cell-based, human; settings: pretreatment
# Description: as §6
# as §2, with “Then incubated with primary antibodies for 3 hours RT or overnight at 4 degrees Celsius and then washed 3× with TBS-T and incubated with secondary antibodies IRDye 800CW donkey anti-mouse for 1 hour and washed 3× with TBS-T.” left out
# (§7) Additionally, we studied the effect of RUNX1 inhibition on the expression of ACE2 expression in TGF-β1 and TNF-α stimulated HPAEpi cells. […] FURIN protein levels were also observed to go down by 70% in the Ro24-7429 treated mice as evaluated by Western blot (FIGS. 4E-F).
# [10] = tested on: ACE2 and FURIN in lung tissue; assay: ACE2 staining and FURIN protein in bleomycin-injured lung; assay type: in vivo, C57BL/6J mice
# Description: as §1, with “groups. […]” for “groups.”
# Protein concentration was determined by Pierce Bicinchonic acid (BCA) protein assay kit (ThermoFisher; 23227) according to the manufacturer's instructions. […]
# as §7
# [11] = tested on: human immunodeficiency virus (HIV); settings: patients infected with HIV; cited from earlier work
# [12] = bleomycin mice, lung tissue, day 14
compound,measurement,setting,value
"CNC1=Nc2ccc(Cl)cc2C(c2ccc[nH]2)=NC1 [Ro24-7429, 3H-1,4-Benzodiazepin-2-amine, 7-chloro-N-methyl-5-(1H-pyrrol-2-yl)-]",effect on lung phenotype / progression of fibrosis,"[1]; 17.5 mg/kg, day 14",slight effect
same,effect on the progression of fibrosis,"[1]; 35 mg/kg, day 14",moderate but variable effect
same,Ashcroft fibrosis score,"[1]; 70 mg/kg, day 14",significant reduction
same,lung structures after bleomycin instillation,"[1]; 70 mg/kg, day 14, H&E and Masson's trichrome",robust preservation of lung structures
same,α-SMA immunostaining localization,"[2]; 70 mg/kg, bleomycin mice",localized only to vessels
same,"expression of E-Cadherin, Western blot",[2]; [12],preserved
same,"expression of RUNX1, Western blot",[2]; [12],reduced
same,"expression of fibronectin, Western blot",[2]; [12],reduced
same,"RUNX1 upregulation, immunofluorescence and qRT-PCR","[2]; bleomycin-injured mice, day 14",significantly attenuated
same,upregulation of fibrosis markers triggered by bleomycin,"[2]; compared to vehicle treated mice, day 14",blunted
same,"infiltration of inflammatory cells, neutrophils and macrophages",[3],reduced infiltration
same,percent live cells compared to vehicle treated,A549 cells [4],significant reduction
same,reduction in proliferation,"A549 cells [4]; A549, 48 hours, 50 μM",62%
same,reduction in proliferation,"A549 cells [4]; A549, 48 hours, 200 μM",68%
same,reduction in proliferation,"A549 cells [4]; A549, 72 hours, 200 μM",82%
same,reduction in proliferation,[5]; 50 μM,30%
same,reduction in proliferation,[5]; 200 μM,55%
same,cell death by LDH analysis,A549 cells [6],Very low levels of cell death
same,cell death by LDH analysis,[7],Very low levels of cell death
same,TGF-β1-induced N-Cadherin upregulation,N-Cadherin in A549 cells,effectively prevented
same,TGF-β1-induced N-Cadherin upregulation,[8],effectively prevented
same,reduction of TNF-α-induced upregulation of RUNX1 mRNA,RUNX1 mRNA in HMEC-Ls,50%
same,reduction of FURIN mRNA expression,FURIN mRNA in HMEC-Ls,70%
same,TGF-β1 and TNFα induced ACE2 protein levels,[9],significantly reduced
same,decrease of FURIN protein levels,"[10]; bleomycin mice lungs, Western blot",70%
same,ACE2 staining in the lung,"[10]; bleomycin mouse model, 2-week time point, immunofluorescence",markedly reduced
same,antiviral activity in clinical trials,[11],no detectable antiviral activity
same,safety profile in clinical trials,[11],acceptable safety profile
COC(=O)c1ccc2c(c1)NC(=O)/C2=C(\Nc1ccc(N(C)C(=O)CN2CCN(C)CC2)cc1)c1ccccc1 [nintedanib],percent live cells compared to vehicle treated,A549 cells [4],significant reduction
